# Laboratory results taken from patent US20110118313A1, “IDENTIFICATION OF A MOLECULAR SIGNATURE FOR ANTIPSYCHOTICS AND SERMS” (priority 2008, published 2011).
# Experiments:
# ARPE-19 cell line = assay: Gene expression profiling (U133A2.0 microarrays) of drug-treated ARPE-19 cells; antipsychotic signature of lipid homeostasis genes; format: cell-based, human; settings: ARPE-19, 10 μM, 24 hrs; for up-regulation of the top 20 probe sets of the antipsychotic group profile: FIG. 3
# From the text: The retinal pigment epithelia cell line, ARPE-19/HPV-16, was chosen to establish a database of drug profiles because it is from non-cancerous human origin, with a normal karyotype, and can easily be grown as monolayer in 96-well plates. H4 is a hypertriploid cell line from glioblastoma origin, which was used only for independent replication. Cell lines were propagated according to supplier's specifications (ATCC Manassas, Va.). Compounds were obtained from Sigma (St. Louis, Mo.) or Vanda Pharmaceuticals (Rockville, Md.). Cells were aliquoted to 96-well plates (˜2×10e5 cells/well) and incubated for 24 hrs prior to providing fresh media with a drug, or the drug vehicle (water, dimethyl sulfoxide, ethanol, methanol, or phosphate-buffered saline solution). Drugs were diluted 1000 fold in buffered Advanced D-MEM/F-12 culture medium (Invitrogen, Carlsbad, Calif.) containing non-essential amino acids and 110 mg/L sodium pyruvate. In these conditions, no significant changes of pH were expected, which was confirmed by the monitoring of the pH indicator present in the medium. A final 10 μM drug concentration was chosen because it is believed to fit in the range of physiological relevance, and has been used in other cell line studies (Ferro et al. 2006; Lamb et al. 2006). Microscopic inspection of each well was conducted at the end of the treatment to discard any instance where cells had morphological changes consistent with apoptosis, and to verify that the drug had not precipitated in the culture medium.
# Cells were harvested 24 hrs after treatment and RNA extracted using the RNeasy 96 protocol (Qiagen, Valencia, Calif.). Gene expression for 22,238 probe sets of 12,490 genes was generated with U133A2.0 microarrays following the manufacture's instructions (Affymetrix, Santa Clara, Calif.). Antipsychotics were profiled in duplicate or triplicate, with multiple vehicle controls on each plate. A total of 708 microarrays were analysed including 74 for the 18 antipsychotics, 499 for the other 448 compounds, and 135 for vehicle controls.
# Each drug treatment-vehicle control pair (treatment instance) was represented by a non-parametric rank-ordered list constructed as follows, similarly to the method described by Lamb and colleagues (Lamb et al. 2006). The raw scan data were first converted to average difference values using MAS 5.0 (Affymetrix). The average difference values of both treatment and control data were set to a minimum threshold of 50 if below 50. For each treatment instance, all probe sets were then ranked based on their amplitude, or level of expression relative to the vehicle control (or average of controls when more than one was used). Amplitude was defined as the ratio of expression (t−v)/[(t+v)/2] where t corresponds to treatment instance and v to vehicle instance.
# Each drug group profile was created using our novel Weighted Influence Model, Rank of Ranks (WIMRR) method which underscores the rank of each probe set across the entire gene expression profile rather than the specific change in expression level. WIMRR takes the average rank of each probe set across all of the members of the group and then re-ranks the probe sets from smallest average rank to largest average rank.
# A gene-set enrichment metric based on the Kolmogorov-Smirnov (KS) statistic was used in a similar fashion by Lamb and colleagues (Lamb et al. 2006). Specifically, for a given set of probes, the KS score gives a measure of how up (positive) or down (negative) the set of probes occurs within the profile of another treatment instance.
# [1] = 2-3 weeks of antipsychotic treatment, schizophrenic patients; cited from earlier work
# [2] = patients; cited from earlier work
# [3] = women affected with schizophrenia; cited from earlier work
# [4] = tested on: Saccharomyces cerevisiae heterozygotes; settings: cited from earlier work
# mouse striatum = settings: cited from earlier work
# [5] = rats; cited from earlier work
# [6] = patients with bipolar disorder; cited from earlier work
smiles,measurement,setting,value
OCCN1CCN(CCCN2c3ccccc3Sc3ccc(Cl)cc32)CC1 [perphenazine],up-regulation of the top 20 probe sets of the antipsychotic group profile,ARPE-19 cell line,stronger up-regulation
Cc1nc2n(c(=O)c1CCN1CCC(c3noc4cc(F)ccc34)CC1)CCCC2 [risperidone],effect on lipid homeostasis (gene expression signature),ARPE-19 cell line,share a common gene expression signature
same,over-expression of RNAs for the desaturase genes FADS1 and FADS2,ARPE-19 cell line,over-expression
same,"plasma levels of certain lipid classes (PE, PC, TG, LY)",[1],significant increases
same,risk for weight gain and hyperlipidemia,[2],much lower risk
CCc1c(C)[nH]c2c1C(=O)C(CN1CCOCC1)CC2 (centres unmarked) [Molindone],up-regulation of the top 20 probe sets of the antipsychotic group profile,ARPE-19 cell line,lowest effect
CN1CCCCC1CCN1c2ccccc2Sc2ccc([S+](C)[O-])cc21 (centres unmarked) [mesoridazine],up-regulation of the top 20 probe sets of the antipsychotic group profile,ARPE-19 cell line,lowest effect
COc1cc(C(C)=O)ccc1OCCCN1CCC(c2noc3cc(F)ccc23)CC1 [iloperidone],up-regulation of the top 20 probe sets of the antipsychotic group profile,ARPE-19 cell line,stronger up-regulation
O=C1Cc2cc(CCN3CCN(c4nsc5ccccc45)CC3)c(Cl)cc2N1 [ziprasidone],effect on lipid homeostasis (gene expression signature),ARPE-19 cell line,share a common gene expression signature
same,risk for weight gain and hyperlipidemia,[2],much lower risk
C[C@]12CC[C@@H]3c4ccc(O)cc4CC[C@H]3[C@@H]1CC[C@@H]2O [oestradiol],symptoms of psychosis and cognitive functioning,[3],improve
Cc1cc2c(s1)Nc1ccccc1N=C2N1CCN(C)CC1 [olanzapine],risk for weight gain and hyperlipidemia,[2],significant increased risk
CN(C)CCCN1c2ccccc2Sc2ccc(Cl)cc21 [chlorpromazine],"effect on genes involved in yeast fatty acid biosynthesis, sterol biosynthesis or phospholipid transport",[4],strong effect
CN1CCN(CCCN2c3ccccc3Sc3ccc(C(F)(F)F)cc32)CC1 [trifluoperazine],"effect on genes involved in yeast fatty acid biosynthesis, sterol biosynthesis or phospholipid transport",[4],strong effect
O=C1CCc2ccc(OCCCCN3CCN(c4cccc(Cl)c4Cl)CC3)cc2N1 [aripiprazole],"plasma levels of certain lipid classes (PE, PC, TG, LY)",[1],minimal effect
O=C(CCCN1CCC(O)(c2ccc(Cl)cc2)CC1)c1ccc(F)cc1 [haloperidol],"effect on genes involved in yeast fatty acid biosynthesis, sterol biosynthesis or phospholipid transport",[4],strong effect
same,differential expression of genes involved in lipid metabolism,mouse striatum,differential expression of genes involved in lipid metabolism
CCN(CC)CCOc1ccc(C(=C(Cl)c2ccccc2)c2ccccc2)cc1 [clomiphene],effect on lipid homeostasis (gene expression signature),ARPE-19 cell line,alter lipid homeostasis
OCCN1CCN(CCCN2c3ccccc3Sc3ccc(C(F)(F)F)cc32)CC1 [fluphenazine],up-regulation of the top 20 probe sets of the antipsychotic group profile,ARPE-19 cell line,stronger up-regulation
CC/C(=C(\c1ccccc1)c1ccc(OCCN(C)C)cc1)c1ccccc1 [tamoxifen],effect on lipid homeostasis (gene expression signature),ARPE-19 cell line,alter lipid homeostasis
same,obesity induced by the antipsychotic sulpiride,[5],prevent obesity
same,mania symptoms,[6],reduce mania symptoms
O=C(c1ccc(OCCN2CCCCC2)cc1)c1c(-c2ccc(O)cc2)sc2cc(O)ccc12 [raloxifene],effect on lipid homeostasis (gene expression signature),ARPE-19 cell line,alter lipid homeostasis
